According to patent publication US7704995B2 (Exelixis, Inc., priority 2003, dated 2010):

Experiments:
Assay in all cases: Kinase specificity assay (33P phosphoryl transfer, LCCA or AlphaScreen)
Type in all cases: biochemical
[1] = target: KDR (Homo sapiens, UniProt P35968); settings: ATP close to KM; read-out: KDR inhibition, IC50
Description: Kinase activity and compound inhibition are investigated using one or more of the three assay formats described below. The ATP concentrations for each assay are selected to be close to the Michaelis-Menten constant (KM) for each individual kinase. Dose-response experiments are performed at 10 different inhibitor concentrations in a 384-well plate format.
The coating solution is aspirated and the plates are washed once with 50 μL of assay buffer and padded dry. […] The plates are subsequently washed 6-12 times with PBST or TBS buffer.

[2] = target: EMK (Homo sapiens, UniProt Q7KZI7); settings: ATP close to KM; read-out: EMK inhibition, IC50
EMK, sequence (Q7KZI7 whole entry): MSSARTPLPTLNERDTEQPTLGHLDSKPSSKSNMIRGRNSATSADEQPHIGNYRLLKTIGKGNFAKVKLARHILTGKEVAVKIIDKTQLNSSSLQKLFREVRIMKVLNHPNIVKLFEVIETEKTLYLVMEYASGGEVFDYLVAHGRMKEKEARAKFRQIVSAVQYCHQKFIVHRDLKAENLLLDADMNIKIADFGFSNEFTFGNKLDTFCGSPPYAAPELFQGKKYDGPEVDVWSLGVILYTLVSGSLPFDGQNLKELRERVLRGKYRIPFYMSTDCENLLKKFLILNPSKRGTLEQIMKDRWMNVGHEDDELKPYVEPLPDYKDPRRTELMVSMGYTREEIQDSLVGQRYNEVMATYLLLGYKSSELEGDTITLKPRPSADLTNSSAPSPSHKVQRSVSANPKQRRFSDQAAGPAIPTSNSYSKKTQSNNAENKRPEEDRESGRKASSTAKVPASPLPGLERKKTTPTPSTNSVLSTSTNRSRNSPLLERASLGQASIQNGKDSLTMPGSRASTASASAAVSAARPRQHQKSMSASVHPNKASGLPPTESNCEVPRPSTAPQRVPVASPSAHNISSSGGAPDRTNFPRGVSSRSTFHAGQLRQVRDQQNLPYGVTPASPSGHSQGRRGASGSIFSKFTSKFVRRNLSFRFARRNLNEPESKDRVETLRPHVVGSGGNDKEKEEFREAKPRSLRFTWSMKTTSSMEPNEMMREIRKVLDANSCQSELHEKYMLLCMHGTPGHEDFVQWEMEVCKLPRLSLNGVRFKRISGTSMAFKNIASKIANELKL
Description: (§1) Kinase activity and compound inhibition are investigated using one or more of the three assay formats described below. The ATP concentrations for each assay are selected to be close to the Michaelis-Menten constant (KM) for each individual kinase. Dose-response experiments are performed at 10 different inhibitor concentrations in a 384-well plate format. The data are fitted to the following four-parameter equation: Y=Min+(Max−Min)/(1+(X/IC50)^H) where Y is the observed signal, X is the inhibitor concentration, Min is the background signal in the absence of enzyme (0% enzyme activity), Max is the signal in the absence of inhibitor (100% enzyme activity), IC50 is the inhibitor concentration at 50% enzyme inhibition and H represents the empirical Hill's slope to measure the cooperativity. Typically H is close to unity. ^33P Phosphoryl Transfer Assay:
(§2) Greiner 384-well white, clear bottom, high binding plates are coated with 2 μg/well of protein or peptide substrate in a 50 μL volume overnight at ambient temperature. The coating buffer typically contains 40 μg/mL substrate, 22.5 mM Na2CO3, 27.5 mM NaHCO3, 150 mM NaCl and 3 mM NaN3. The coating solution is aspirated and the plates are washed once with 50 μL of assay buffer and padded dry. Subsequently compounds and enzymes are mixed with γ^33P-ATP (3.3 μCi/nmol) in a total volume of 20 uL in suitable assay buffers. The mixture is incubated at ambient temperature for 1.5-2.5 hrs and terminated by aspiration using a Molecular Devices EMBLA 96-head plate washer. The plates are subsequently washed 6-12 times with PBST or TBS buffer. Scintillation fluid (50 μl/well) is then added, the plates are sealed and activity assessed by liquid scintillation spectrometry using a Perkin Elmer MicroBeta TriLux.
(§3) In the LCCA assays, kinase activity is measured as the percent ATP consumed following the kinase reaction using luciferase-luciferin-coupled chemiluminescence. Greiner 384-well white, clear bottom, medium binding plates are used for LCCA. Briefly, the kinase reaction is initiated by mixing compounds, ATP and kinase in a 20 uL volume. The mixture is incubated at ambient temperature for 2-4 hrs. At the end of the kinase reaction, a 20 uL luciferase-luciferin mix is added and the chemiluminescent signal is read using a Wallac Victor^2 reader. The luciferase-luciferin mix consists of 50 mM HEPES, pH 7.8, 8.5 ug/mL oxalic acid (pH 7.8), 5 (or 50) mM DTT, 0.4% Triton X-100, 0.25 mg/mL coenzyme A, 63 uM AMP, 28 ug/mL luciferin and 40,000 units of light/mL luciferase. For the LCCA assays, total ATP consumption has been standardized to 25-45% and the IC50 values correlates well with those determined by radiometric assays.
(§4) AlphaScreen technology is a proximity assay which utilizes the increase in fluorescent signal when donor and acceptor beads are close in proximity. Biotinylated poly(Glu,Tyr) 4:1 is used as the kinase substrate, in conjunction with streptavidin-coated donor beads and anti-phosphortyrosine antibody PY100-coated acceptor beads. Upon phosphorylation, the peptide substrate can bind to both donor and acceptor beads giving rise to an increase in fluorescence. Compounds, ATP, biotinylated poly(Glu, Tyr) and kinases are mixed in a volume of 20 uL for 1 hr at ambient temperature using Greiner 384-well white clear bottom medium binding plates. Following incubation a 10 uL solution containing […] AlphaScreen beads, 75 mM Hepes, pH 7.4, 300 mM NaCl, 120 mM EDTA, 0.3% BSA and 0.03% Tween-20 is added to each well. After 2-16 hr incubation of the beads, plates are read in a Perkin Elmer AlphaQuest reader. The IC50 values correlates well with those of radiometric assays.

[3] = target: EphA2R (Homo sapiens, UniProt P29317); settings: ATP close to KM; read-out: EphA2R inhibition, IC50
EphA2R, sequence (P29317 24-976): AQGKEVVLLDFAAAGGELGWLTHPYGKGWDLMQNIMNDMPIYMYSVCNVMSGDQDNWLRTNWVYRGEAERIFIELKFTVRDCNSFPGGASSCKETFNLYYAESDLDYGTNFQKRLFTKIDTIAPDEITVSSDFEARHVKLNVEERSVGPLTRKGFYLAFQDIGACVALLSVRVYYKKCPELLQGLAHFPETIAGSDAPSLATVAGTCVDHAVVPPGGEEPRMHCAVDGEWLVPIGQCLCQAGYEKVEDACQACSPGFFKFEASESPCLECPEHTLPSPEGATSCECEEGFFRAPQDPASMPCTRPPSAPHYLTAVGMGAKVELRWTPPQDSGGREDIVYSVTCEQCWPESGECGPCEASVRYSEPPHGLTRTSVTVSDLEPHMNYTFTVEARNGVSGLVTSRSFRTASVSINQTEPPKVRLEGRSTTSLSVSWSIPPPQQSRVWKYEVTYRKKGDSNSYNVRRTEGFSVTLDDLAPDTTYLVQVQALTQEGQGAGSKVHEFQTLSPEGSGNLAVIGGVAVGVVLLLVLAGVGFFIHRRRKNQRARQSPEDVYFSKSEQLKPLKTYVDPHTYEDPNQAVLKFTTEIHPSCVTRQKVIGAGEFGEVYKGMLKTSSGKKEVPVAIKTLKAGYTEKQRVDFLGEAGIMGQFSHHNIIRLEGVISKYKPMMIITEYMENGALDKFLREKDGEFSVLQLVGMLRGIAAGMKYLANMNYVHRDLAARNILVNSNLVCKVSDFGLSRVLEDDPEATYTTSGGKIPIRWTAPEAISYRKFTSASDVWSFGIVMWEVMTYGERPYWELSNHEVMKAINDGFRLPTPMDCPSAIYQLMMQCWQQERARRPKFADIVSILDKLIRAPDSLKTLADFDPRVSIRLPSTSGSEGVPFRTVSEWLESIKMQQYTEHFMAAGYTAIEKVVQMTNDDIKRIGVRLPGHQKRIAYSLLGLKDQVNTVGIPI
Description: as §1, §2, §3, §4

[4] = target: ErbB2 (Homo sapiens, UniProt P04626); settings: ATP close to KM; read-out: ErbB2 inhibition, IC50
ErbB2, sequence (P04626 23-1255): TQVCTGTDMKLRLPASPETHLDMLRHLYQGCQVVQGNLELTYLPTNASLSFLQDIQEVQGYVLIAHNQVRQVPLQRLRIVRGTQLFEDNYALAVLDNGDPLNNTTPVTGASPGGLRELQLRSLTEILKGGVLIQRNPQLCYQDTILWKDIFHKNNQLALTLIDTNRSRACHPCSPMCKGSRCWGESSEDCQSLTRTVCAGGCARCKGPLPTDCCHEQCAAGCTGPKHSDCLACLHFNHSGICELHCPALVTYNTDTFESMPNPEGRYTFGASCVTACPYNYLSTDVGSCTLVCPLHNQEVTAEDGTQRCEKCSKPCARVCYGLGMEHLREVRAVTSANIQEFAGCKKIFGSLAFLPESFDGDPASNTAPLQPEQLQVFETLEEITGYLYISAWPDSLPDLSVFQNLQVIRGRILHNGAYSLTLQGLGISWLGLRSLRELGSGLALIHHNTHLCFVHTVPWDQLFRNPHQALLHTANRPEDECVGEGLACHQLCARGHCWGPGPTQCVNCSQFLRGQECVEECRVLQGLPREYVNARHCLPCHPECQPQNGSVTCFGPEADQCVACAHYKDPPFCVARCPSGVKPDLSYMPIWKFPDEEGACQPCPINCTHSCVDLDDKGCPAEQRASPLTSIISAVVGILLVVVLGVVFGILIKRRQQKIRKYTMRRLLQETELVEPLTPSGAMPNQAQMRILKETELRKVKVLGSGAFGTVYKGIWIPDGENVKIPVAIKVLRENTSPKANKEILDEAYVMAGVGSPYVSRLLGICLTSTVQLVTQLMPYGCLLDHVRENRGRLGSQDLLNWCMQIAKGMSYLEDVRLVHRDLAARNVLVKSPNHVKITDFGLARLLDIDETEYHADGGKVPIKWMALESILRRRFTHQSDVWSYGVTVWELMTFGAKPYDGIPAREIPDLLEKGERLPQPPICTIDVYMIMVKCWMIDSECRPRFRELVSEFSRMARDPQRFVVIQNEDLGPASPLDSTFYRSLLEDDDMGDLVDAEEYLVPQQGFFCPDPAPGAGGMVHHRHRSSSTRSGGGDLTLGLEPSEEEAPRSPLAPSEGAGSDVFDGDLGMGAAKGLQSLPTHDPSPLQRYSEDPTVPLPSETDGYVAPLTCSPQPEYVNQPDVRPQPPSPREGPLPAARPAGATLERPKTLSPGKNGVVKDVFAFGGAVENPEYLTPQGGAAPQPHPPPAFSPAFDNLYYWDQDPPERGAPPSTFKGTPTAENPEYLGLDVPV
Description: as §1, §2, §3, §4

[5] = target: Flt1 (Homo sapiens, UniProt P17948); settings: ATP close to KM; read-out: Flt1 inhibition, IC50
Description: as §1, §2, §3, §4

[6] = target: Flt4 (Homo sapiens, UniProt P35916); settings: ATP close to KM; read-out: Flt4 inhibition, IC50
Flt4, sequence (P35916 25-1363): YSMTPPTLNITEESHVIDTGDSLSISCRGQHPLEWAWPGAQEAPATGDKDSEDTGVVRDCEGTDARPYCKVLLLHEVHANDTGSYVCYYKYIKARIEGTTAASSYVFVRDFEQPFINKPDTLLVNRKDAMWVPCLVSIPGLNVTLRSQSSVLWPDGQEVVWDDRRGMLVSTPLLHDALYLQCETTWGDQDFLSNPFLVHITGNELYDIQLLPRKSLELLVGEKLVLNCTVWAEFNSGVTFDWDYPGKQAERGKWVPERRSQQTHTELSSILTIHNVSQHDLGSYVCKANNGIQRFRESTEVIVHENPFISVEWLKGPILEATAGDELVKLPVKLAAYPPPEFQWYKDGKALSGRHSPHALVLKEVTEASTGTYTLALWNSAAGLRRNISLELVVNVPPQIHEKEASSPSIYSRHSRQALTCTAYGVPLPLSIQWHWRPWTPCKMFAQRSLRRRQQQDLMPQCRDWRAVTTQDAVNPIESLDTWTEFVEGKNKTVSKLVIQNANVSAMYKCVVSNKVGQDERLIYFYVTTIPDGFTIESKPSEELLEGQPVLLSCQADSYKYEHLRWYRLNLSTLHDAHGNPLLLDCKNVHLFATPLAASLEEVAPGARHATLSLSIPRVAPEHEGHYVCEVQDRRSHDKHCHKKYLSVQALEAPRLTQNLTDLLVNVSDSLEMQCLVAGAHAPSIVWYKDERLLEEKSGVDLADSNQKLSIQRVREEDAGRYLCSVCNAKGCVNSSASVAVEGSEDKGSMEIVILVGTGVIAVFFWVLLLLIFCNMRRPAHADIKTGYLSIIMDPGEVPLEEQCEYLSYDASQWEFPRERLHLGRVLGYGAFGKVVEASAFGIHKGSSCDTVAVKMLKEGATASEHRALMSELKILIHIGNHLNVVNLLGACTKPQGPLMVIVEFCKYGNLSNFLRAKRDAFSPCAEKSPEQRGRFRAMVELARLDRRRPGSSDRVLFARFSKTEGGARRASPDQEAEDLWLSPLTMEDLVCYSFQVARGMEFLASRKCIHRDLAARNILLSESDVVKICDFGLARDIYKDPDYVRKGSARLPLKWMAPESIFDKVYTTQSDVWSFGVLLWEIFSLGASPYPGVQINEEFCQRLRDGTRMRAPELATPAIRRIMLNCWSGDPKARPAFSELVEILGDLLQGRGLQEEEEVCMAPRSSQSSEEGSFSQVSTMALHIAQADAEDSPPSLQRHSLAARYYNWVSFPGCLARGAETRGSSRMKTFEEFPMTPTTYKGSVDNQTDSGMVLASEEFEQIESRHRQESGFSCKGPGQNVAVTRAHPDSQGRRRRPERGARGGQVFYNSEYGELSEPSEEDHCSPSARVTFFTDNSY
Description: as §1, §2, §3, §4

[7] = target: Fyn (Homo sapiens, UniProt P06241); settings: ATP close to KM; read-out: Fyn inhibition, IC50
Fyn, sequence (P06241 whole entry): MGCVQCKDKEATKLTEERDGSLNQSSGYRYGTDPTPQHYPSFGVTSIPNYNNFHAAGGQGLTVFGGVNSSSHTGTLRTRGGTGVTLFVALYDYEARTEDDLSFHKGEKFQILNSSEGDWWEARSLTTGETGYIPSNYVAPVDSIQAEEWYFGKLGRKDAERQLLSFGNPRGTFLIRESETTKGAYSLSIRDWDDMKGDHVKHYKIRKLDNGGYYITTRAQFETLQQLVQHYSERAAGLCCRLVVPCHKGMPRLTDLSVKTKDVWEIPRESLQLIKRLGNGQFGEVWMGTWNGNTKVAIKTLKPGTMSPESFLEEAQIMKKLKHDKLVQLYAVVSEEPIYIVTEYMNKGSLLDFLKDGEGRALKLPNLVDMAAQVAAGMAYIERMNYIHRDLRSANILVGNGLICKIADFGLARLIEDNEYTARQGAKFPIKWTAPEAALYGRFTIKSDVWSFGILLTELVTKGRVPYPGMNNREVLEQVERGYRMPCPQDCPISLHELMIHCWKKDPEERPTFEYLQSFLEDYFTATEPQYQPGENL
Description: as §1, §2, §3, §4

[8] = target: PKA (Homo sapiens, UniProt P17612); settings: ATP close to KM; read-out: PKA inhibition, IC50
Description: as §1, §2, §3, §4

NC(=O)c1nc(-c2cccc3ccccc23)cnc1N [Example 2, 3-Amino-6-naphthalen-1-ylpyrazine-2-carboxamide]
IC50 [1]: 0.05 to 1 µM | IC50 [2]: 1 to 10 µM | IC50 [3]: ≥ 10 µM | IC50 [4]: ≥ 10 µM | IC50 [5]: 0.05 to 1 µM | IC50 [6]: < 0.05 µM | IC50 [7]: 1 to 10 µM | IC50 [8]: 1 to 10 µM
